In series [1] the test system is Candidatus Liberibacter solanacearum (CLso). Format: in vivo, potato (Solanum tuberosum L. var. Atlantic). The note with it: foliar spray 10 and 25 μM twice a week, 28 dpi; for CLso titers by qPCR: vs untreated controls; for disease symptoms (chlorosis, necrosis, leaf curling and wilting): vs untreated plants.
The subject of series [2] is Clavibacter michiganensis (Gram positive). Nature of the series: Bacterial culture growth inhibition, cell density (OD: 600). Format: cell-based. The note with it: for cell density (OD: 600): untreated 1.61.
For series [3], the system named is Pseudomonas syringae (Gram negative). The series is described as above. Format: cell-based. The note with it: 24 h; for growth inhibition significance vs untreated (asterisks): N=4; for cell density (OD: 600): untreated 1.82. The method, then: These compounds were also tested against other phytobacteria. The respective bacterial cultures were grown in the presence of multiple concentrations of a compound (μM) for 24 h, followed by cell density measurements (OD: 600). […]

For series [4], the system named is Agrobacterium tumefaciens (Gram negative). The description is as above. The note with it: for cell density (OD: 600) / growth inhibition significance vs untreated (asterisks): 24 h; for cell density (OD: 600): untreated 1.12; for growth inhibition significance vs untreated (asterisks): N=4. The class given is cell-based.
In series [5] the test system is Candidatus Liberibacter solanacearum (CLso). The class given is cell-based. The conditions noted are these: re-test, five biological replicates, 72 h; tetracycline 250 ppm.
Series [6] concerns Candidatus Liberibacter asiaticus (CLas). The class given is cell-based. The conditions noted are these: 25 μM, 72 h; tetracycline 500 ppm.
For series [7] the following is noted: cited from earlier work.
In series [8] the test system is bacteria, fungi, and the superbug MRSA. The note with it: agar patch studies; cited from earlier work.

SMILES strings stand for the structures. Read-outs that look alike come from different tables or passages of the source.

Regarding `COc1ccc(C2COc3c(ccc(O)c3OC)C2)c(OC)c1O` (single isomer, unassigned; (-)) [Duartin (−), (−)-duartin], in series [1], the “CLso titers by qPCR” value was “lowered CLso titers”. For the same compound, the “disease symptoms (chlorosis, necrosis, leaf curling and wilting)” value (“disease symptoms” for short) in series [1] is “clearly lower level of disease symptoms”. In addition, the “cell density (OD: 600)” value in series [2] (5 μM, 24 h) is recorded as 1.66; in series [2] (10 μM, 24 h), 1.61; in series [2] (20 μM, 24 h), 1.65; in series [2] (50 μM, 24 h), 1.62; in series [3] (5 μM), 1.77; in series [3] (10 μM), 1.78. For the same compound, the “cell density (OD: 600)” value in series [3] (20 μM) was found to be 1.79; in series [3] (50 μM), 1.76; in series [4] (5 μM), 1.10; in series [4] (10 μM), 1.11; in series [4] (20 μM), 1.10; in series [4] (50 μM), 1.09. The “growth inhibition significance vs untreated (asterisks)” value in series [3] (5 μM) is reported as “** (highly effective, **P≤0.001)”; in series [3] (10 μM) it was “** (highly effective, **P≤0.001)”; in series [3] (50 μM) it was “** (highly effective, **P≤0.001)”. Also, in series [5], the “inhibition of CLso (FIG. 1b)” value was “inhibited”. Further, the “inhibition of CLas (FIG. 1c)” value in series [6] is reported as “inhibited”.
Consider `Cl.NCCCCCC(=O)O` [Aminocaproic acid hydrochloride, 6-aminohexanoic acid], for which the “cell density (OD: 600)” value in series [2] (5 μM, 24 h) is recorded as 1.64; in series [2] (10 μM, 24 h), 1.64; in series [2] (20 μM, 24 h), 1.66; in series [2] (50 μM, 24 h), 1.59; in series [3] (5 μM) it was 1.80; in series [3] (10 μM) it was 1.81. The “cell density (OD: 600)” value in series [3] (20 μM) came to 1.80; in series [3] (50 μM) it was 1.78; in series [4] (5 μM), 1.17; in series [4] (10 μM), 1.16; in series [4] (20 μM), 1.10; in series [4] (50 μM) it was 1.11. The “growth inhibition significance vs untreated (asterisks)” value in series [3] (50 μM) is “* (effective, *P≤0.05)”. Also, the solubility result in series [7] (in chloroform) is “practically insoluble”; in series [7] (in methanol), “sparingly soluble”; in series [7] (in water, acid, and alkaline solutions), “soluble”.
With `CN(C)CCOC(c1ccc(Cl)cc1)c1ccccn1.O=C(O)/C=C\C(=O)O` (stereo not drawn) [Carbinoxamine maleate], the “cell density (OD: 600)” value stood at 1.68 in series [2] (5 μM, 24 h); 1.63 in series [2] (10 μM, 24 h); 1.58 in series [2] (20 μM, 24 h); 1.59 in series [2] (50 μM, 24 h); 1.81 in series [3] (5 μM); 1.81 in series [3] (10 μM). For the same compound, the “cell density (OD: 600)” value is on record as 1.81 in series [3] (20 μM); 1.77 in series [3] (50 μM); 1.10 in series [4] (5 μM); 1.08 in series [4] (10 μM); 1.14 in series [4] (20 μM); 1.20 in series [4] (50 μM). Also, the “growth inhibition significance vs untreated (asterisks)” value in series [3] (50 μM) is reported as “* (effective, *P≤0.05)”.
Take `Cc1cc(O)cc(C)c1Cl` [Chloroxylenol, 4-chloro-3,5-dimethylphenol]: the “CLso titers by qPCR” value in series [1] is “lowered CLso titers”. Also, the “disease symptoms” value in series [1] was “clearly lower level of disease symptoms”. In series [2], the “effective against Clavibacter michiganensis” value was “effective”. Further, the “cell density (OD: 600)” value was 1.59 in series [2] (5 μM, 24 h); 1.56 in series [2] (10 μM, 24 h); 1.52 in series [2] (20 μM, 24 h); 1.38 in series [2] (50 μM, 24 h); 1.82 in series [3] (5 μM); 1.81 in series [3] (10 μM). The “cell density (OD: 600)” value in series [3] (20 μM) was 1.76; in series [3] (50 μM), 1.30; in series [4] (5 μM), 1.12; in series [4] (10 μM) it was 1.06; in series [4] (20 μM) it was 0.99; in series [4] (50 μM), 0.92. Further, the “growth inhibition significance vs untreated (asterisks)” value is on record as “** (highly effective, **P≤0.001)” in series [2] (50 μM, 24 h, N=4); “** (highly effective, **P≤0.001)” in series [3] (20 μM); “** (highly effective, **P≤0.001)” in series [3] (50 μM); “* (effective, *P≤0.05)” in series [4] (50 μM). For the same compound, in series [8], the “time to kill a wide variety of microbes” value was no more than 15 s. In addition, the “effective against Agrobacterium tumefaciens” value in series [4] is on record as “effective”. Besides, the “inhibition of CLso (FIG. 1b)” value in series [5] was “inhibited”. Further, the “inhibition of CLas (FIG. 1c)” value in series [6] is on record as “inhibited”.
`CCCNC(=O)NS(=O)(=O)c1ccc(Cl)cc1` [Chlorpropamide]: in series [2], the “effective against Clavibacter michiganensis” value was “effective”. For the same compound, the “cell density (OD: 600)” value in series [2] (5 μM, 24 h) is given as 1.67; in series [2] (10 μM, 24 h) it was 1.65; in series [2] (20 μM, 24 h), 1.63; in series [2] (50 μM, 24 h) it was 1.56; in series [3] (5 μM), 1.77; in series [3] (10 μM), 1.78. For the same compound, the “cell density (OD: 600)” value in series [3] (20 μM) turned out to be 1.76; in series [3] (50 μM), 1.77; in series [4] (5 μM), 1.14; in series [4] (10 μM), 1.14; in series [4] (20 μM) it was 1.17; in series [4] (50 μM), 1.16. Besides, the “growth inhibition significance vs untreated (asterisks)” value in series [3] (5 μM) is “** (highly effective, **P≤0.001)”; in series [3] (10 μM) it was “* (effective, *P≤0.05)”; in series [3] (20 μM) it was “** (highly effective, **P≤0.001)”; in series [3] (50 μM), “* (effective, *P≤0.05)”. Further, the “effective against Agrobacterium tumefaciens” value in series [4] is on record as “effective”.
For `CCn1nc(C(=O)O)c(=O)c2cc3c(cc21)OCO3` [Cinoxacin, 1-ethyl-1,4-dihydro-4-oxo-[1,3] dioxolo [4,5-g] cinnoline-3-carboxylic acid], the “cell density (OD: 600)” value in series [2] (5 μM, 24 h) worked out at 1.63; in series [2] (10 μM, 24 h), 1.64; in series [2] (20 μM, 24 h) it was 1.59; in series [2] (50 μM, 24 h), 1.57; in series [3] (5 μM), 1.77; in series [3] (10 μM), 1.76. The “cell density (OD: 600)” value is on record as 1.72 in series [3] (20 μM); 1.76 in series [3] (50 μM); 1.17 in series [4] (5 μM); 1.11 in series [4] (10 μM); 1.13 in series [4] (20 μM); 0.94 in series [4] (50 μM). Also, the “growth inhibition significance vs untreated (asterisks)” value in series [3] (5 μM) is on record as “* (effective, *P≤0.05)”; in series [3] (10 μM), “* (effective, *P≤0.05)”; in series [3] (20 μM) it was “** (highly effective, **P≤0.001)”; in series [3] (50 μM) it was “** (highly effective, **P≤0.001)”; in series [4] (50 μM) it was “* (effective, *P≤0.05)”. Besides, the “effective against Agrobacterium tumefaciens” value in series [4] was “effective”.
Regarding `CN(C)CCOC(=O)C(c1ccccc1)C1(O)CCCC1.Cl` (stereo not drawn) [Cyclopentolate hydrochloride], the “CLso titers by qPCR” value in series [1] is recorded as “lowered CLso titers”. Further, the “disease symptoms” value in series [1] is “clearly lower level of disease symptoms”. The “cell density (OD: 600)” value in series [2] (5 μM, 24 h) is listed as 1.64; in series [2] (10 μM, 24 h), 1.60; in series [2] (20 μM, 24 h), 1.59; in series [2] (50 μM, 24 h) it was 1.62; in series [3] (5 μM) it was 1.78; in series [3] (10 μM) it was 1.79. Also, the “cell density (OD: 600)” value in series [3] (20 μM) came out at 1.77; in series [3] (50 μM) it was 1.73; in series [4] (5 μM) it was 1.08; in series [4] (10 μM), 1.11; in series [4] (20 μM), 1.11; in series [4] (50 μM), 1.12. Besides, the “growth inhibition significance vs untreated (asterisks)” value in series [3] (5 μM) is “* (effective, *P≤0.05)”; in series [3] (20 μM) it was “* (effective, *P≤0.05)”; in series [3] (50 μM), “** (highly effective, **P≤0.001)”. The “inhibition of CLso (FIG. 1b)” value in series [5] is given as “inhibited”. Moreover, the “inhibition of CLas (FIG. 1c)” value in series [6] is on record as “inhibited”.
